Here are results for 2 compounds from PMC9238736 (Journal of the American Heart Association: Cardiovascular …, 2022).

The target in one test is T1, hKir2.1 (Homo sapiens, UniProt P63252).
T1 sequence (P63252 1-427): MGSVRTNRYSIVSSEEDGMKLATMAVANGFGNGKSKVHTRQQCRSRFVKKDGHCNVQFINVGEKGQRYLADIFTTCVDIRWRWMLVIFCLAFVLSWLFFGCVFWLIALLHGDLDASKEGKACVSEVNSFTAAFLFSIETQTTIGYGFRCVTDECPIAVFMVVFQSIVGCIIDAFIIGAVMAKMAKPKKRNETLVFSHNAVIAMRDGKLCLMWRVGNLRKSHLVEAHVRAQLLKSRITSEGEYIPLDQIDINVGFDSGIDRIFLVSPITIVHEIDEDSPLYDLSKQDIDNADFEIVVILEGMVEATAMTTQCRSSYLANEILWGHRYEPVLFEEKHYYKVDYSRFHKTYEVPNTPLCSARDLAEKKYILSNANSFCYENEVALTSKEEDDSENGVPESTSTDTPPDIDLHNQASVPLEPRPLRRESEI
As to the kind of experiment: whole-cell patch clamp, hyperpolarizing ramp, […] °C. In general terms: Patch clamp records ionic current or voltage across a cell membrane.

The target in test [1] is human ether‐à‐go‐go–related gene (hERG) channel (Homo sapiens, UniProt Q12809).
For the next test, the target named is T2, hKir2.2 (Homo sapiens, UniProt Q14500).
T2 sequence (Q14500 1-433): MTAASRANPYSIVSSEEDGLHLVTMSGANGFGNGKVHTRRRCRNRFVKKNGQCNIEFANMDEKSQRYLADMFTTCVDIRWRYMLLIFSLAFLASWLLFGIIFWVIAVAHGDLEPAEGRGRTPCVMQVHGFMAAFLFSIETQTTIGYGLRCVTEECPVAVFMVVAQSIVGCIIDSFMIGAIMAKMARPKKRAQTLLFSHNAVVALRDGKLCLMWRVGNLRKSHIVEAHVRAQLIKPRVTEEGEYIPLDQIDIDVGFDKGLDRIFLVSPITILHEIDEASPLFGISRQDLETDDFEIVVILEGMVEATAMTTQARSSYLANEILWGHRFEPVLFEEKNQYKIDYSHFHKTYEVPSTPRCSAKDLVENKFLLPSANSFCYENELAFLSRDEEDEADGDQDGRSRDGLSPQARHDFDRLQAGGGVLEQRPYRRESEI
Briefly: whole-cell patch clamp, hyperpolarizing ramp. In kind it is cell-based.

Sequence of human ether‐à‐go‐go–related gene (hERG) channel (Q12809 whole entry): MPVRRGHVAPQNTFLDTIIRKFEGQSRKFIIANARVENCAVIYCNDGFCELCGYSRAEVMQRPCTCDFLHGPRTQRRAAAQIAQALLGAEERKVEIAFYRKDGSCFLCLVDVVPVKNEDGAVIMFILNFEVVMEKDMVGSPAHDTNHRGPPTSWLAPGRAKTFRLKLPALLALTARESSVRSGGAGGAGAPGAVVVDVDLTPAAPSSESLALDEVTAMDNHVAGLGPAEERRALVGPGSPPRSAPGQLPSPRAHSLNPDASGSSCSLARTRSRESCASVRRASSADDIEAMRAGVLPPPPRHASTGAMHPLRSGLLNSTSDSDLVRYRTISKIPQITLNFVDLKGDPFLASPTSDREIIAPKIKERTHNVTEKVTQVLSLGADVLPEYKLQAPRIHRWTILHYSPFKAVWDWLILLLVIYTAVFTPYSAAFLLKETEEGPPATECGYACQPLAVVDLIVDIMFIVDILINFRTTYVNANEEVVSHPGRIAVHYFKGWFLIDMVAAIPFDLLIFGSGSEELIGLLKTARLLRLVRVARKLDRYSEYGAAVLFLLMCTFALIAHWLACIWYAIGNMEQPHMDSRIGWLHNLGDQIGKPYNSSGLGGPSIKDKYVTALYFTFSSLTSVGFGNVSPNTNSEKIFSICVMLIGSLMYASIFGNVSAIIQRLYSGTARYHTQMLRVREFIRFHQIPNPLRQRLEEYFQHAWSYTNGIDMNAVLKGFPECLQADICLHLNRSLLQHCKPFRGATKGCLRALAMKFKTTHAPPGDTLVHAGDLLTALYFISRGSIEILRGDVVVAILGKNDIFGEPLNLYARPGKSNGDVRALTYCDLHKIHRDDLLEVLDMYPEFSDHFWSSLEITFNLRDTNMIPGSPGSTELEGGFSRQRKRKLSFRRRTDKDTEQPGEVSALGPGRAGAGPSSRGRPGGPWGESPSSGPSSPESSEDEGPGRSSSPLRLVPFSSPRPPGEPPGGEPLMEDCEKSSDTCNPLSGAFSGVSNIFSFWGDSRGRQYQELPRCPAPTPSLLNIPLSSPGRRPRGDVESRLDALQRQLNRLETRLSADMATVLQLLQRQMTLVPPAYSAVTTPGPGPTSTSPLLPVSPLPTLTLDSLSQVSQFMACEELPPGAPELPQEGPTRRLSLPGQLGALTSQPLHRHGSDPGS

As to `CCC(=O)C(CC(C)N(C)C)(c1ccccc1)c1ccccc1` (racemic) [methadone], the IC50 (against hKir2.1; in test [1]) was 2.9 µM each time.
With `CN(C)C(=O)C(CCN1CCC(O)(c2ccc(Cl)cc2)CC1)(c1ccccc1)c1ccccc1` [loperamide], 1.2 µM corresponded to half-maximal inhibition on hKir2.2 (IC50).
